Reference: PMC4579270, “Identification and Characterization of an Irreversible Inhibitor of CDK2” (Chemistry & Biology, 2015)
Where two headings read alike, the source gives them in different places.

Tests used:
[1] = system: human MCF-7 breast carcinoma cells; set-up: method as in Davies et al., 2002; details: ref Davies et al., 2002; cited from earlier work
[2] = system: phosphorylation of Rb at Thr821 in SKUT-1B cells; experiment: Inhibition of Rb phosphorylation in cells (western blot); assay type: cell-based; details: for inhibition at 50 µM: Homo sapiens, Skut1B, 1 hr exposure
Protocol: The cellular potency of NU6300 was examined by measuring the inhibition of Rb phosphorylation following exposure of SKUT-1B cells to the inhibitor for 1 hr. Pre-incubation with 50 μM NU6300 inhibited phosphorylation of Rb at […], a known CDK2 phosphorylation site, by 43%. […] This difference just reached statistical significance (p = 0.04). […] Representative of three different experiments. […] Protein expression levels of phospho-Rb ([…]) were normalized to the levels of total Rb in respective samples using densitometry. Relative protein expression levels are presented as percentage of inhibition of phosphorylation of Rb ([…]) compared with the control cells for each time point. Error bars represent the mean value and SD from three independent experiments. Statistical analysis was performed using the unpaired Student's t test, one-tailed. Western blot analysis was carried out as described previously ([Thomas et al., 2011]) using rabbit anti-[…] phospho-Rb antibody (Invitrogen) or mouse antihuman Rb antibody (BD Pharmingen) to detect phosphorylated and total retinoblastoma protein, respectively. Sample preparation is described in Supplemental Experimental Procedures. page 14: formate) before cryo-coolling. Data processing was carried out using programs of the CCP4 suite (CCP4, 1994). The structure of NU6300 bound to CDK2/cyclin A was solved by molecular replacement using Phaser (McCoy et al., 2007), using as the search model a high-resolution structure of a recruitment peptide bound to CDK2/cyclin A ((Cheng et al., 2006) PDB code 2CCH). A single clear solution was found with an inhibitor bound to each of the two copies of the binary complex in the asymmetric unit. This solution was then subjected to rigid body refinement in REFMAC (Murshudov et al., 1997), to reveal unambiguous electron density in the CDK2 ATP-binding site, consistent with the expected shape of the inhibitor. A model of NU6300 was created using Coot (Emsley et al., 2010). The inhibitor atoms were kept in all subsequent models during refinement carried out by additional rounds of manual rebuilding in Coot and restrained refinement in REFMAC5, including TLS refinement. Towards the end of refinement, waters were added using the Coot water picking utility and manually verified. Western blotting SKUT-1B cells (ATCC, Manassas, USA) were grown in MEM medium supplemented with non-essential amino acids, L-Glutamine, sodium pyruvate and 10% (v/v) foetal calf serum (Sigma, UK). […] Cells were harvested at different time points after the washout and lysed by adding PhosphoSafe extraction reagent (Merck, UK) containing protease inhibitor cocktail (Roche, UK) at the manufacturer's recommended dilution. The harvested cell suspension was placed in an eppendorf tube on ice, centrifuged at 13,000x g for 5 min, and the supernatant (cell lysate) removed for analysis. Subsequent western blot analysis was carried out as described in (Thomas et al., 2011) using rabbit anti-[…] phospho-Rb antibody (Invitrogen, Paisley, UK Cat No. 44-[…]) or mouse anti-human Rb antibody (BD Pharmingen, Oxford, UK Cat No. 554136) to detect phosphorylated and total retinoblastoma protein, respectively.

SMILES: NS(=O)(=O)c1ccc(Nc2nc(OCC3CCCCC3)c3nc[nH]c3n2)cc1 [NU6102, 4-((6-(Cyclohexylmethoxy)-9H-purin-2-yl)amino)benzenesulfonamide]
- GI50 [1]: 8 µM
- inhibitory activity lost after washout ([2]; 50 μM, 1 hr of washout): just over half
- inhibition at 50 µM ([2]; before washout, read-out: inhibition of phosphorylation of Rb at Thr821): 85%
- inhibition at 50 µM ([2]; then 1-hr washout in drug-free media, read-out: inhibition of phosphorylation of Rb at Thr821 after washout): 40%
